Measured values taken from patent publication US10273290B2, “Hydrocarbon double-stapled stabilized HIV-1 GP41 heptad repeat domain peptides” (DANA-FARBER CANCER INSTITUTE, INC., priority 2009, dated 2019).
Bridge positions count the residues as written; N and C are the ends. Square brackets hold non-standard residues; d marks the D form. Peptide text beside a SMILES is read from it. S5 = C=CCCC[C@](C)(N)C(=O)O; Nle = CCCC[C@H](N)C(=O)O

Key:
[1] = Chymotrypsin, pH 7
Excerpt: Table printed on a drawing sheet, FIG. 17C
Title: Chymotrypsin, pH 7
First reader's note: The table also serves as the legend of the plot of fraction intact over time; the line and marker symbols are left out.

[2] = biological target: T1, chymotrypsin (Bos taurus, UniProt P00766); assay: Protease resistance assay, chymotrypsin (LC/MS); format: in vitro ADME; details: pH 7.4, 0.5 chymotrypsin, peptide 25 μM
T1 construct: purchased Sigma
Method: The DAD signal was set to 280 nm with an 8 nm bandwidth and MSD set to scan mode with one channel at (M+2H)/2, +1 mass units and the other at (M+3H)/3, +1 mass units. Integration of each MSD signal yielded areas under the curve of >10^8 counts. Reaction samples were composed of 5 μL peptide in DMSO (1 mM stock) and 195 μL of buffer consisting of 50 mM phosphate buffer pH 7.4 containing 2 mM CaCl2. Upon injection of the 0 hr time point sample, 2 μL of 50 ng/μL chymotrypsin (Sigma) was added and the amount of intact peptide quantitated by serial injection over time. An internal control of acetylated tryptophan carboxamide at a concentration of 100 μM was used to normalize each MSD data point. A plot of MSD area versus time yielded an exponential decay curve and half-lives were determined by nonlinear regression analysis using Prism software (GraphPad).

[3] = test system: resistant primary R5 isolate YU2; assay: Luciferase-based HIV-1 infectivity assay, YU2; format: cell-based; details: compared to T649v
Excerpt: Also the direct inhibitory activity of modified polypeptides and the antibodies targeted thereto can be quantified based upon their capacity to directly block HIV infection of CD4-positive and CCR5-expressing canine thymus cells. Recombinant HIV-1 viruses (eg. HXBc2, YU2, and additional strains available through the NIH AIDS Research and Reference Reagent Program) expressing firefly luciferase and containing the indicated envelope glycoproteins can be used to infect Cf2Th-CD4-CCR5/CXCR4 cells in the presence of serially diluted modified HIV-1 gp41 polypeptides or antibodies targeted thereto After 48 hours, the cells are lysed and luciferase activity is quantified (Si, Z. H., M. Cayabyab, and J. Sodroski, Journal of Virology, 2001. 75(9): p. 4208-4218 Si, Z. H., et al., PNAS, 2004. 101(14): p. 5036-5041). The identical experiment is performed with the amphotropic murine leukemia virus (AMLV), to monitor for any nonspecific effects of the modified polypeptides or antibodies. […]
HIV-1 infectivity assays were performed using known methods (Madani et al., 2007 Inhibition of human immunodeficiency virus envelope glycoprotein-mediated single cell lysis by low-molecular-weight antagonists of viral entry. J Virol, 81: 532-538; and Si et al., 2001 Envelope glycoprotein determinants of neutralization resistance in a simian-human immunodeficiency virus (SHIV-HXBc2P 3.2) derived by passage in monkeys. J Virol, 75:4208-4218; both incorporated herein by reference). […] D-luciferin (50 μL of 1 mM stock in 100 μL luciferin buffer) is then added to each well and luciferase activity measured using a luminometer (EG&G Berthold).
To assess the functional impact of hydrocarbon stapling on gp41-based fusion inhibitor activity, SAH-gp41 peptides were tested and compared to their unmodified counterparts in a luciferase-based HIV-1 infectivity assay. Recombinant HIV-1 bearing the envelope glycoproteins from three distinct HIV-1 strains, HXBc2, ADA, and HXBc2P 3.2, and a negative control virus bearing the amphotropic murine leukemia virus (A-MLV) envelope glycoproteins, were evaluated. […]

[4] = test system: pepsin; assay: Protease resistance assay, pepsin at pH 2; details: pepsin (isolated protease) in buffer, pH 2
Method: The DAD signal was set to 280 nm with an 8 nm bandwidth and MSD set to scan mode with one channel at (M+2H)/2, +1 mass units and the other at (M+3H)/3, +1 mass units. […] Reaction samples were composed of 5 μL peptide in DMSO (1 mM stock) and 195 μL of buffer consisting of 50 mM phosphate buffer pH 7.4 containing 2 mM CaCl2. Upon injection of the 0 hr time point sample, 2 μL of 50 ng/μL chymotrypsin (Sigma) was added and the amount of intact peptide quantitated by serial injection over time. An internal control of acetylated tryptophan carboxamide at a concentration of 100 μM was used to normalize each MSD data point. A plot of MSD area versus time yielded an exponential decay curve and half-lives were determined by nonlinear regression analysis using Prism software (GraphPad). The assay was also performed using trypsin and pepsin in their appropriate buffer conditions.

[5] = Circular dichroism, α-helical content; format: physicochemical
Method: The α-helicity of stapled modified polypeptides was compared to their unmodified counterparts by circular dichroism. CD spectra were obtained on an Aviv spectropolarimeter at 20° C. using the following standard measurement parameters: wavelength, 190-260 nm; step resolution, 0.5 nm; speed, 20 nm/sec; accumulations, 10; response, 1 sec; bandwidth, 1 nm; path length, 0.1 cm. The α-helical content of each peptide was calculated by dividing the mean residue ellipticity [θ]222obs, by the reported [θ]222obs for a model helical peptide (Forood, B., E. J. Feliciano, and K. P. Nambiar, PNAS, 1993. 90(3): p. 838-842; J. Martin Scholtz, Biopolymers, 1991. 31(13): p. 1463-1470; Lawless, M. K., et al., Biochemistry, 1996. 35(42): p. 13697-13708) or using, for example, the Aviv machine using CDNN software developed by Brohm in order to deduce five different secondary structure fractions (helix, parallel and antiparallel beta-sheet, beta-turn and random coil). Protein Engineering, 1992. 5(3); p. 191-195
In order to evaluate secondary structure improvements of hydrocarbon-stapled peptides, we record and analyze circular dichroism (CD) spectra on an Aviv Biomedical spectrometer (model 410), as described above. […] The CD spectra are initially plotted as wavelength versus millidegree. […] After conversion to mean residue ellipticity, percent α-helicity can be calculated using the equation, % helicity=100×[θ]222/^max[θ]222, where ^max[θ]222=−40,000×[1−(2.5/number of amino acid residues)]. We also employ the curve-fitting CDDN software that is bundled with our spectrometer to calculate the relative fractions of secondary structure including α-helix, parallel and antiparallel β-sheet, β-turn and random coil.

SMILES	Half-Life [1] [min]	Half-Life [2] [min]	anti-YU2 activity, in words [3]	half-life at 25 μM [4] [min]	% helicity at pH 2 ([5]; pH 2) [%]	% helicity at pH 7 ([5]; pH 7) [%]
CCCC[C@H](NC(C)=O)C(=O)N[C@H](C(=O)N[C@@H](Cc1c[nH]c2ccccc12)C(=O)N[C@@]1(C)CCCC=CCCC[C@@](C)(C(=O)N[C@@H](CCC(=O)O)C(=O)N[C@H](C(=O)N[C@@H](CC(N)=O)C(=O)N[C@@H](CC(N)=O)C(=O)N[C@@H](Cc2ccc(O)cc2)C(=O)N[C@H](C(=O)N[C@@H](CO)C(=O)N[C@@H](CC(C)C)C(=O)N[C@H](C(=O)N[C@@H](Cc2c[nH]cn2)C(=O)N[C@@H](CO)C(=O)N[C@@H](CC(C)C)C(=O)N[C@H](C(=O)N[C@@H](CCC(=O)O)C(=O)N[C@@H](CCC(=O)O)C(=O)N[C@@H](CO)C(=O)N[C@@H](CCC(N)=O)C(=O)N[C@@H](CC(N)=O)C(=O)N[C@@H](CCC(N)=O)C(=O)N[C@@H](CCC(N)=O)C(=O)N[C@@H](CCC(=O)O)C(=O)N[C@@H](CCCCN)C(=O)N[C@@H](CC(N)=O)C(=O)N[C@@H](CCC(=O)O)C(=O)N[C@@H](CCC(N)=O)C(=O)N[C@@H](CCC(=O)O)C(=O)N[C@@H](CC(C)C)C(=O)N[C@@H](CC(C)C)C(=O)N[C@@H](CCC(=O)O)C(N)=O)[C@@H](C)CC)[C@@H](C)CC)[C@@H](C)O)[C@@H](C)CC)NC(=O)[C@H](CC(=O)O)NC(=O)[C@H](Cc2c[nH]c3ccccc23)NC(=O)[C@H](CCC(=O)O)NC1=O)[C@@H](C)O [SAH-gp41(626-662)(A)] (Ac-[Nle]TW[S5]EWD[S5]EINNYTSLIHSLIEESQNQQEKNEQELLE-NH2; staple 4-8; N-terminus and C-terminus assumed)	116	79	enhanced anti-YU2 activity	118		
CCCC[C@H](NC(C)=O)C(=O)N[C@H](C(=O)N[C@@H](Cc1c[nH]c2ccccc12)C(=O)N[C@@H](CCCC)C(=O)N[C@@H](CCC(=O)O)C(=O)N[C@@H](Cc1c[nH]c2ccccc12)C(=O)N[C@@H](CC(=O)O)C(=O)N[C@@H](CCCNC(=N)N)C(=O)N[C@@H](CCC(=O)O)C(=O)N[C@H](C(=O)N[C@@H](CC(N)=O)C(=O)N[C@@H](CC(N)=O)C(=O)N[C@@H](Cc1ccc(O)cc1)C(=O)N[C@H](C(=O)N[C@@H](CO)C(=O)N[C@@H](CC(C)C)C(=O)N[C@H](C(=O)N[C@@H](Cc1c[nH]cn1)C(=O)N[C@@H](CO)C(=O)N[C@@H](CC(C)C)C(=O)N[C@H](C(=O)N[C@@H](CCC(=O)O)C(=O)N[C@@H](CCC(=O)O)C(=O)N[C@@H](CO)C(=O)N[C@@H](CCC(N)=O)C(=O)N[C@@H](CC(N)=O)C(=O)N[C@@H](CCC(N)=O)C(=O)N[C@@]1(C)CCCC=CCCC[C@@](C)(C(=O)N[C@@H](CCC(N)=O)C(=O)N[C@@H](CCC(=O)O)C(=O)N[C@@H](CC(C)C)C(=O)N[C@@H](CC(C)C)C(=O)N[C@@H](CCC(=O)O)C(N)=O)NC(=O)[C@H](CC(N)=O)NC(=O)[C@H](CCCCN)NC(=O)[C@H](CCC(=O)O)NC1=O)[C@@H](C)CC)[C@@H](C)CC)[C@@H](C)O)[C@@H](C)CC)[C@@H](C)O [SAH-gp41(626-662)(F)] (Ac-[Nle]TW[Nle]EWDREINNYTSLIHSLIEESQNQ[S5]EKN[S5]QELLE-NH2; staple 28-32; N-terminus and C-terminus assumed)	77	102	enhanced anti-YU2 activity	129	82	63
